Results from patent US12121614B2, “Delayed release composition for peroral administration” (VICORE PHARMA AB, priority 2020, dated 2024).

Experiment: Dissolution studies of C21 sodium salt in buffers of different pH
Type: physicochemical
Conditions: Zwitterion formed at intermediated pHs; conclusion from experiments (A)-(E)
Description: 50.7 mg of C21 sodium salt (Ardena, Riga, Latvia) was added to 900 mL of 0.09M carbonate buffer (pH 8.95) at a temperature of 37±3° C. with stirring. […] After 15 minutes of stirring, 2M acetic acid solution was added dropwise to provide a pH of 4.52. Evolution CO2 was noted. […] After additional stirring for a further 1.5 hours, 1M NaOH was added to increase pH to 6.8.
51.2 mg of C21 sodium salt was added to 900 mL of acetate buffer (pH 4.4) at the same temperature with stirring. […] After stirring for 1 hour, 1M NaOH solution was added dropwise to increase the pH to 7.2.
53.2 mg of C21 sodium salt was added to 900 mL 0.1M of HCl buffer (pH 1.0) at the same temperature with stirring. […] After 20 minutes of stirring, 1M NaOH solution was added dropwise to increase the pH to 4.5.
51.0 mg of C21 sodium salt was added to 900 mL of 0.1M citrate buffer (pH 4.42) at the same temperature with stirring. The added compound formed a thin slurry. It seemed that nothing had dissolved.
50.8 mg of C21 sodium salt was added to 900 mL of an acetate buffer (pH 4.49) at the same temperature. […] After stirring for 1 hour, a 1M NaOH solution was added dropwise to increase the pH to 6.8.

## CCCCOC(=O)NS(=O)(=O)c1sc(CC(C)C)cc1-c1ccc(Cn2ccnc2)cc1 [C21, N-butyloxycarbonyl-3-(4-imidazol-1-ylmethylphenyl)-5-iso-butylthiophene-2-sulfonamide]
  solubility of C21's Zwitterion: insoluble
